Here are results for two molecules from patent publication US20030224978A1, “Compounds and methods for modulating apoptosis” (McGill University, priority 1996, published 2003).

The test system of assay [1] is A1N4 human breast epithelial cells. Briefly: Disruption of breast epithelial cell adhesion, E-cadherin immunostaining. Type of assay: cell-based. The conditions noted are these: 500 μg/mL, 48 hours. As to the method: A1N4 human breast epithelial cells (kindly provided by Martha Stampfer, Lawrence Berkeley Laboratory, Berkeley, Calif.) were plated on glass coverslips and cultured in F12/DME containing 0.5% FCS and 10 ng/mL EGF for 24 hours. Fresh medium containing the cyclic peptides (final concentration 500 μg/mL media) N-Ac-CHAVC-NH2 (SEQ ID NO:10) or N-Ac-CHGVC-NH2 (SEQ ID NO:20) was then added. Following 24 hours of culture in the presence of the peptides, the medium was removed and fresh medium containing the peptides was added. The cells were fixed 24 hours later with cold methanol and stored in phosphate buffered saline (PBS).
Coverslips were blocked for 1 hour in 3% ovalbumin/PBS and incubated for a further 1 hour in the presence of 1 μg/mL mouse anti-E-cadherin antibody (Zymed, Gaithersburg, Md.). Primary and secondary antibodies were diluted in PBS containing 6% normal goat serum. Following incubation in the primary antibody, coverslips were washed 3 times for 5 minutes each in PBS and incubated for 1 hour with goat anti-mouse conjugated to fluorescein (Kiekegard and Perry, South San Francisco, Calif.) diluted 1:100. Following a further wash in PBS (3×5 minutes) coverslips were mounted in Vectashield (Vector Labs, Burlingame, Calif.) and viewed with a Zeiss infinity corrected microscope.

Another assay deals with OVCAR-3. Briefly: Disruption of human ovarian cancer cell (OVCAR-3) adhesion. The format is cell-based. The conditions noted are these: for OVCAR3 cell morphology: 24 hours. As to the method: The human ovarian cancer cell line OVCAR-3, which expresses E-cadherin, was used in these experiments. Cells were cultured in RPMI supplemented with insulin and containing 20% FCS. Cells were grown in T-250 culture flasks and maintained by periodic subculturing. Cells were harvested from flasks and seeded in individual wells of 96-well culture dishes (surface area of each well was 0.32 cm^2) at a density of 50,000 cells per well in 0.1 ml media containing the cyclic peptides (at concentrations of 1, 0.1, or 0.01 mg/ml). Media control wells were also established. Cultures were evaluated periodically by microscopic examination under both bright field and phase contrast conditions, and were maintained for 48 hours.

Entries after “also recorded” stand apart in the source; their conditions may differ. Positions of bridges follow the written chain, without caps; N, C: chain ends. Residues, ends and D or L forms follow the SMILES beside them.

On to `CC(=O)N[C@H]1CSSC[C@@H](C(N)=O)NC(=O)[C@H](C(C)C)NC(=O)[C@H](C)NC(=O)[C@H](Cc2c[nH]cn2)NC1=O` [N-Ac-CHAVC-NH2, N-Ac-Cys-His-Ala-Val-Cys-NH2], for which, in assay [1], the “E-cadherin staining and monolayer of A1N4 cells” value is listed as “reduced E-cadherin staining with a stitched appearance; also recorded: distribution of E-cadherin is non-contiguous”.
Regarding `CC(=O)N[C@H]1CSSC[C@@H](C(N)=O)NC(=O)[C@H](CO)NC(=O)[C@H](C(C)C)NC(=O)[C@H](C)NC(=O)[C@H](Cc2c[nH]cn2)NC1=O` [N-Ac-CHAVSC-NH2, N-Ac-Cys-His-Ala-Val-Ser-Cys-NH2] (Ac-CHAVSC-NH2; disulfide 1-6), the values for the OVCAR3 cell morphology result in the assay on OVCAR-3 (100 μg/ml) and in the assay with OVCAR-3 (1 mg/ml) were “retract form one another” and “round up”, respectively. Moreover, in the assay on OVCAR-3 (1, 0.1, or 0.01 mg/ml, up to 48 hours), the “effect on OVCAR-3 adhesion” value is listed as “disrupted OVCAR-3 adhesion”.
